Laboratory results from the NIST ThermoML archive (doi:10.1021/acs.jced.9b00564).
± gives the expanded uncertainty stated by the source.

Legend:
[1] = Molar enthalpy of transition or fusion; conditions: Crystal; DSC
[2] = Crystal; DSC

Molar enthalpy of transition or fusion [1]: 5.27 ± 0.182 kcal/mol
Triple point temperature [2]: 342.77 ± 1.2 K
Structure (SMILES): O=[N+]([O-])c1ncccc1O [2-nitropyridin-3-ol]
